Assay results from patent US20230167101A1, “NOVEL INHIBITORS OF HISTONE […] P300/CBP FOR CANCER THERAPY” (BAYLOR COLLEGE OF MEDICINE, priority 2020, published 2023).
pEC50, pIC50: −log10 of the molar value. Values joined by “and” are separate entries in the source; they are usually repeats but may differ in a detail not shown here. Equal values may be shown once.

Tests used:
[1] = target: T1, human CBP HAT (Homo sapiens, UniProt Q92793); test: CBP HAT inhibition assay; assay type: biochemical; details: read-out: IC50 against CBP HAT
T1 construct: made in house
T1 sequence (Q92793 1323-1700 limits assumed): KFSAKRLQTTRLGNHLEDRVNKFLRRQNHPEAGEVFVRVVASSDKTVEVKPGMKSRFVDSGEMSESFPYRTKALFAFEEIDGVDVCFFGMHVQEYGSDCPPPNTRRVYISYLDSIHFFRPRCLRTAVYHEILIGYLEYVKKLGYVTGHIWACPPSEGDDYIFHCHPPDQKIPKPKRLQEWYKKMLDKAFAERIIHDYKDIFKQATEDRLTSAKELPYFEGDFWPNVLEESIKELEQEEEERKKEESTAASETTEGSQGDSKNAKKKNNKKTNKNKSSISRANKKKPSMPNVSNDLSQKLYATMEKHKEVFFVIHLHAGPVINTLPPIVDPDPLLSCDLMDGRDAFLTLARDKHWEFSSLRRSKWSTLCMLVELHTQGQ
Source text: (§1) Humans have three classes of histone/protein lysine acetyltransferases with distinct conserved motifs and structures, including p300/CBP, Gcn5-related N-acetyltransferase (GNAT) and MYST (MOZ, Ybf2, Sas2 and Tip60) family of HATs. […] CBP is a homolog of p300. […] PCAF (p300/CBP associating factor) is a member of the GNAT family, while Myst3 belongs to the MYST family of HATs.
The HAT domain (1195-1673) of human p300 was cloned, inserted into pGEX-KG vector and the DNA sequence was verified by sequencing. The p300-HAT expression plasmid was transformed into E. coli BL21-CodonPlus strain (Agilent) and cultured at 37° C. in LB medium containing ampicillin (50 µg/mL) and chloramphenicol (34 µg/mL). After the optical density of the bacterial culture reached ~0.9 at 600 nm, p300 HAT expression was induced by adding 300 µM isopropylthiogalactoside (IPTG) at 18° C. for 48 hours. Cells were collected, lysed, centrifuged for 20 min at 20,000 rpm. The supernatant was subjected to column chromatography with glutathione sepharose resins. […]
To determine inhibitory activity, a compound with concentrations ranging from 100 nM to 10 µM was incubated with p300-HAT (10 nM) in 20 µL of 50 mM phosphate buffer (pH = 7.0) containing 0.01% Brij-35 for 10 min at 25° C. […] Radioactivity on the filter paper was measured with a Beckman LS-6500 scintillation counter. […]

[2] = target: T2, PCAF (Homo sapiens, UniProt Q92831); test: PCAF HAT inhibition assay; assay type: biochemical
T2 construct: made in house
T2 sequence (Q92831 whole entry): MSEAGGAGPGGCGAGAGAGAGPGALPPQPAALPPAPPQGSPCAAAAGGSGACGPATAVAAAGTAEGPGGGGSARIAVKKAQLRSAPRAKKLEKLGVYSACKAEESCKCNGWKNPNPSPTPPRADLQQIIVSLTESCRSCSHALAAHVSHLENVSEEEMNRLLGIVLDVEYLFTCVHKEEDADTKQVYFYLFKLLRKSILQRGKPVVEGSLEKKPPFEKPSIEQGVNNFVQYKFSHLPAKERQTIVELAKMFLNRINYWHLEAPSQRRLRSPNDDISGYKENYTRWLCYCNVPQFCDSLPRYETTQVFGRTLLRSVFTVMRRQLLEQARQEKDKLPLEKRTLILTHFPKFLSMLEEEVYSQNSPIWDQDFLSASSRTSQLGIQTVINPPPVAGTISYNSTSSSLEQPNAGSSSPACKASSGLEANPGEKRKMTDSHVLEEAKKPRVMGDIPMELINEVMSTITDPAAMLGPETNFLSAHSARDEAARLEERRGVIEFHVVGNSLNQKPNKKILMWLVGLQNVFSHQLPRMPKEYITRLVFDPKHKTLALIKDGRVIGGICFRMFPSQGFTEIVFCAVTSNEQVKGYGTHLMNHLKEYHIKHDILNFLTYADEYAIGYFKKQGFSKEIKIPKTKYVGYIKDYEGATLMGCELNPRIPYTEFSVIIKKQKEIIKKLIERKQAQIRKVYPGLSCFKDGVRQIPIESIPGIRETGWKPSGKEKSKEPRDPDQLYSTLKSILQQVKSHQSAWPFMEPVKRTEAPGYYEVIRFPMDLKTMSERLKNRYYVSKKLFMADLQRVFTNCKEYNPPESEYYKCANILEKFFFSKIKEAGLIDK
Source text: as §1
The HAT domain (1195-1673) of human p300 was cloned, inserted into pGEX-KG vector and the DNA sequence was verified by sequencing. The p300-HAT expression plasmid was transformed into E. coli BL21-CodonPlus strain (Agilent) and cultured at 37° C. in LB medium containing ampicillin (50 µg/mL) and chloramphenicol (34 µg/mL). After the optical density of the bacterial culture reached ~0.9 at 600 nm, p300 HAT expression was induced by adding 300 µM isopropylthiogalactoside (IPTG) at 18° C. for 48 hours. Cells were collected, lysed, centrifuged for 20 min at 20,000 rpm. The supernatant was subjected to column chromatography with glutathione sepharose resins. The recombinant GST-p300-HAT fusion protein was obtained in ~90% purity (SDS-PAGE) by elution with 10 mM of glutathione solution, which was further purified using a Superdex 200 gel filtration column chromatography. CBP, PCAF and Myst3 HATs were obtained using similar methods.
To determine inhibitory activity, a compound with concentrations ranging from 100 nM to 10 µM was incubated with p300-HAT (10 nM) in 20 µL of 50 mM phosphate buffer (pH = 7.0) containing 0.01% Brij-35 for 10 min at 25° C. Histone H3 peptide (1-21) (20 µM) and Acetyl-CoA (1 µM ^3H—Ac—CoA and 19 µM Ac—CoA) were added to initiate the reaction. After 30 min at 25° C., the reaction was stopped by adding 6 N formic acid (5 µL). 20 µL of reaction mixture was then transferred to a small piece of P81 filter paper (Whatman) that binds histone H3 peptide. The filter paper was washed 3x with 50 mM NaHCO3, dried, and transferred into a scintillation vial containing 2 mL of scintillation cocktail. Radioactivity on the filter paper was measured with a Beckman LS-6500 scintillation counter. […]

[3] = target: T3, Myst3 (Homo sapiens, UniProt Q92794); test: Myst3 HAT inhibition assay; assay type: biochemical
T3 construct: made in house
T3 sequence (Q92794 whole entry): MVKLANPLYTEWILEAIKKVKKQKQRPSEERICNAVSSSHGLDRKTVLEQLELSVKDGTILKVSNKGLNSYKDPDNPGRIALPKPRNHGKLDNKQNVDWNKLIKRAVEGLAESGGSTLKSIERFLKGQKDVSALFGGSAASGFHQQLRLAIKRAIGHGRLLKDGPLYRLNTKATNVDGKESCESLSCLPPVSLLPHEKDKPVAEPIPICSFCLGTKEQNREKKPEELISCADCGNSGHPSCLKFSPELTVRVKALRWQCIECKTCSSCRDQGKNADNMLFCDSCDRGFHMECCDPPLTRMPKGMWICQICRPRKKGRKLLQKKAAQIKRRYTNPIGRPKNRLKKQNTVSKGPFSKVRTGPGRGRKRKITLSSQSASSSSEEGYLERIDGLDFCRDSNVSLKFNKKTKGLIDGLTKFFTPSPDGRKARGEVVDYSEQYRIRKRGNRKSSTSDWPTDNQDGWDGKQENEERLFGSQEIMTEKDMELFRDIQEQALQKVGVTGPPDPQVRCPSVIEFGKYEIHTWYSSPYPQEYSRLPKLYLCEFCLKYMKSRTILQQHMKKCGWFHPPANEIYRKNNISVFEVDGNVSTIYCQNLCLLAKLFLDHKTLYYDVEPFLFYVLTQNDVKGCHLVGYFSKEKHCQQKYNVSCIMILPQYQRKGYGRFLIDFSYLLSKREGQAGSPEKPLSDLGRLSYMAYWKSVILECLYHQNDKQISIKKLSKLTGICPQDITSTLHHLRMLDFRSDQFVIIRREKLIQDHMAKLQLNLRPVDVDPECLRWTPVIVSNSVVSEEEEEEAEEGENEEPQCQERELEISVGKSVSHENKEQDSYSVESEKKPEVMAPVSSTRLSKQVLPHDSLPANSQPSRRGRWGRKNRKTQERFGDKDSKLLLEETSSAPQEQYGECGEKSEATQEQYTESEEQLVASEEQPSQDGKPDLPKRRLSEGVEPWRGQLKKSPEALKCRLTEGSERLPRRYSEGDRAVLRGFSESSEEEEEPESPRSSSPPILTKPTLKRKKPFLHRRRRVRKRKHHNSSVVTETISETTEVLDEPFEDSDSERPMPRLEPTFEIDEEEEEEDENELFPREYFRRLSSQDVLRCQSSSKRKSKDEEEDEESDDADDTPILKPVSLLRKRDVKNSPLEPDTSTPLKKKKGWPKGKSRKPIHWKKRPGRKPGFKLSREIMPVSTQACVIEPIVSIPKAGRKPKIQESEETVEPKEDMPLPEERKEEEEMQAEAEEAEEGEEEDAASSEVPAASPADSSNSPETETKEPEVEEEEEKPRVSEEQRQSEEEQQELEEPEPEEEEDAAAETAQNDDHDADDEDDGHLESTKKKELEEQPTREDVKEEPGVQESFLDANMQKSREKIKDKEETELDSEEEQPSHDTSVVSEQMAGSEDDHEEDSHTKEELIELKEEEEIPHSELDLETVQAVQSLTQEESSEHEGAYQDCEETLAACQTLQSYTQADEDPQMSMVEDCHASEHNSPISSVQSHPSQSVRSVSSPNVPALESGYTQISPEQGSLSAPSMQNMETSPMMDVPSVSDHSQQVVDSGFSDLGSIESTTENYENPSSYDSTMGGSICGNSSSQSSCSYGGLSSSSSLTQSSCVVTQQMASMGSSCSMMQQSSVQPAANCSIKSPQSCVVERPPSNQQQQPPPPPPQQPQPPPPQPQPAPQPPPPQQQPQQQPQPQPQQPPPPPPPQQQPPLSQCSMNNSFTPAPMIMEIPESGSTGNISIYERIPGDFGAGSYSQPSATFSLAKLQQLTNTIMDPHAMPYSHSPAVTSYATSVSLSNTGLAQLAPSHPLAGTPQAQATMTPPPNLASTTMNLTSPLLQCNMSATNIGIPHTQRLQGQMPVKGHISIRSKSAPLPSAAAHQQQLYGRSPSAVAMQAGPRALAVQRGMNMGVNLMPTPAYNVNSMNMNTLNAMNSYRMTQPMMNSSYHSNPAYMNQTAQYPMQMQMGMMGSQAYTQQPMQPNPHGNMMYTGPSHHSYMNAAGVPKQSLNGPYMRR

[4] = tested on: MCF-7; test: Cell growth inhibition, MCF-7; assay type: cell-based; details: read-out: EC50, antiproliferative activity
Experimental: (§2) The anti-proliferation assays for non-breast cancer cells were done using a previously developed assay. In brief, for Kasumi-1 cells, […] were added into 96-well plates and cultured with increasing concentrations of a compound in RPMI-1640 medium supplemented with 20% fetal bovine serum and penicillin (100 U/mL) and streptomycin (100 µg/mL) at 37° C. in a 5% CO2 atmosphere with 100% humidity. For solid tumor cells, 10^5 cells per well were added into 96-well plates and cultured in Dulbecco’s Modified Eagle’s Medium (DMEM) supplemented with 10% fetal bovine serum and penicillin (100 U/mL) and streptomycin (100 µg/mL) overnight. Upon addition of increasing concentrations of a compound, cells were incubated for 5 days. Cell viability was assessed by using an XTT assay kit (Roche) for leukemia cells or an MTT assay (Sigma) for attachment cells. For the breast cancer MCF-7 cells, culture and inhibition assays were performed according to our previous methods in Ref. 25 and 26. Compound EC50 values were calculated from dose response curves using Prism 5.0.

[5] = tested on: PANC-1; test: Cell growth inhibition, PANC-1 (MTT); assay type: cell-based; details: PANC-1, 5 days; read-out: EC50, antiproliferative activity
Experimental: as §2

[6] = tested on: MDA-PANC-28; test: Cell growth inhibition, MDA-PANC-28 (MTT); assay type: cell-based; details: MDA-PANC-28, 5 days; read-out: EC50, antiproliferative activity
Experimental: as §2

pIC50 [1]: 5.92
inhibition of PCAF ([2]; at 20 µM): < 10%
inhibition of PCAF activity (in words) ([2]; at 20 µM): did not significantly inhibit
pIC50 ([2]; read-out: IC50 against PCAF): < 4.70
inhibition of Myst3 ([3]; at 20 µM): < 10%
inhibition of Myst3 activity (in words) ([3]; at 20 µM): did not significantly inhibit
pIC50 ([3]; read-out: IC50 against Myst3): < 4.70
pEC50 [4]: 5.55 and ~5.52
pEC50 [5]: 6.00
pEC50 [6]: 5.55
SMILES: CC(C)(C)c1ccc(-c2cc(CNCC3CCNCC3)sc2-c2ccc(C(C)(C)C)cc2)cc1 [Compound 12]
